Converted amounts (≈) assume the structure as drawn. The source made the active and inactive calls.

As usually defined, the MIC is the smallest concentration in the dilution series that meets the test's criterion for growth inhibition. The IC90 is the point of the concentration-response curve where the effect stands at 90%. A lower IC90 goes with an effect from little substance. As a reminder, the GI50 is the concentration at which growth is held to half of that of the control.

One data set relates to Aspergillus flavus. Put plainly: Antifungal activity against Aspergillus flavus NCIM 539 after 48 hrs by agar cup plate method. It is filed as functional. Conditions: NCIM 539, 48 h.
Data set [1] has as its system Mycobacterium bovis BCG str. ATCC 35743. The experiment in a line: Antitubercular activity against dormant Mycobacterium bovis BCG ATCC 35743 incubated for 40 mins by XTT Reduction Menadione Assay. It is filed as functional. A general note: Tetrazolium assays rely on reduction of a dye to a coloured formazan, in cell work by metabolically active cells.
For data set [2], the system named is Mycobacterium tuberculosis. Put plainly: Antitubercular activity against Mycobacterium tuberculosis H37Ra ATCC 25177 at 3 ug/ml incubated for 40 mins by XTT Reduction Menadione Assay. As to conditions: H37Ra ATCC 25177, 40 min, read-out: GI. It is filed as functional.
In data set [3] the test system is Mycobacterium tuberculosis. Put plainly: Antitubercular activity against active Mycobacterium tuberculosis H37Ra ATCC 25177 incubated for 40 mins by XTT Reduction Menadione Assay. It is filed as functional. As to conditions: H37Ra ATCC 25177, 40 min.
The test system of data set [4] is Mycobacterium tuberculosis. The experiment in a line: Antitubercular activity against Mycobacterium tuberculosis H37Ra ATCC 25177 at 10 ug/ml incubated for 40 mins by XTT Reduction Menadione Assay. The class given is functional. As to conditions: H37Ra ATCC 25177, 40 min, read-out: GI.
The next data set relates to Candida albicans. Put plainly: Antifungal activity against Candida albicans NCIM 3471 after 48 hrs by agar cup plate method. The class given is functional. As to conditions: NCIM 3471, 48 h.
In data set [5] the test system is Fusarium oxysporum. Put plainly: Antifungal activity against Fusarium oxysporum NCIM 1332 after 48 hrs by agar cup plate method. The class given is functional. Conditions: NCIM 1332, 48 h.
Data set [6] relates to Mycobacterium bovis BCG str. ATCC 35743. Put plainly: Antitubercular activity against dormant Mycobacterium bovis BCG ATCC 35743 at 3 ug/ml incubated for 40 mins by XTT Reduction Menadione Assay. It is filed as functional.
Data set [7] in a line: Cytotoxicity against human PANC1 cells after 48 hrs by MTT assay. It is filed as cell-based, PANC-1. Conditions: for GI50 at 48 h: PANC1 cells; for GI90: panc-1, 48 h.
The next data set relates to Aspergillus niger. The experiment in a line: Antifungal activity against Aspergillus niger NCIM 1196 after 48 hrs by agar cup plate method. The class given is functional. Conditions: NCIM 1196, 48 h.
Data set [8] deals with Mycobacterium tuberculosis. Put plainly: Antitubercular activity against dormant Mycobacterium tuberculosis H37Ra ATCC 25177 incubated for 40 mins by XTT Reduction Menadione Assay. It is filed as functional. Conditions: H37Ra ATCC 25177, 40 min.
A short description of data set [9]: Antitubercular activity against Mycobacterium bovis BCG ATCC 35743 incubated for 40 mins by XTT Reduction Menadione Assay. It is filed as functional, Mycobacterium bovis BCG str. ATCC 35743. Conditions: Mycobacterium tuberculosis variant bovis BCG, ATCC 35743, 40 min.
Data set [10] deals with Mycobacterium bovis BCG str. ATCC 35743. The experiment in a line: Antitubercular activity against dormant Mycobacterium bovis BCG ATCC 35743 at 10 ug/ml incubated for 40 mins by XTT Reduction Menadione Assay. It is filed as functional.
Data set [11] has the same test system. The experiment in a line: Antitubercular activity against dormant Mycobacterium bovis BCG ATCC 35743 at 30 ug/ml incubated for 40 mins by XTT Reduction Menadione Assay. The class given is functional.
Data set [12] is described as follows: Cytotoxicity against human THP1 cells after 48 hrs by MTT assay. The class given is cell-based, THP-1. Conditions: for GI50 at 48 h: THP1 cells; for GI90: thp-1, 48 h.
Data set [13] in a line: (§1) Cytotoxicity against human HeLa cells after 48 hrs by MTT assay. Conditions: HeLa cells. The class given is cell-based.
Another data set deals with HeLa. The data set is described as §1. The class given is cell-based. As to conditions: hela, 48 h.
In data set [14] the test system is Cryptococcus neoformans. Put plainly: Antifungal activity against Cryptococcus neoformans NCIM 576 after 48 hrs by agar cup plate method. The class given is functional. As to conditions: NCIM 576, 48 h.
In data set [15] the test system is Mycobacterium tuberculosis. The experiment in a line: Antitubercular activity against Mycobacterium tuberculosis H37Ra ATCC 25177 at 30 ug/ml incubated for 40 mins by XTT Reduction Menadione Assay. It is filed as functional. Conditions: H37Ra ATCC 25177, 40 min, read-out: GI.
The next data set concerns A549. The experiment in a line: (§2) Cytotoxicity against human A549 cells after 48 hrs by MTT assay. Conditions: a549, 48 h. The class given is cell-based.
A short description of data set [16]: as §2. It is filed as cell-based. As to conditions: A549 cells.
In data set [17] the test system is Mycobacterium tuberculosis. The experiment in a line: Antitubercular activity against Mycobacterium tuberculosis H37Ra ATCC 25177 incubated for 40 mins by XTT Reduction Menadione Assay. It is filed as functional. As to conditions: H37Ra ATCC 25177, 40 min.
For a further data set, the system named is Pseudomonas fluorescens. The experiment in a line: Antibacterial activity against Pseudomonas fluorescens after 18 hrs by broth dilution method. The class given is functional. A general note: Dilution methods test growth across graded concentrations, often in twofold steps.
In a further data set the test system is Escherichia coli. The experiment in a line: Antibacterial activity against Escherichia coli after 18 hrs by broth dilution method. The class given is functional.
Another data set has as its system Bacillus subtilis. Put plainly: Antibacterial activity against Bacillus subtilis after 18 hrs by broth dilution method. It is filed as functional.
A further data set deals with Staphylococcus aureus. The experiment in a line: Antibacterial activity against Staphylococcus aureus after 18 hrs by broth dilution method. It is filed as functional.
For data set [18], the system named is Fusarium oxysporum. The experiment in a line: Antifungal activity against Fusarium oxysporum NCIM 1332 up to 200 ug/ml after 48 hrs by agar cup plate method. It is filed as functional, organism-based.
Data set [19] relates to Cryptococcus neoformans. The experiment in a line: Antifungal activity against Cryptococcus neoformans NCIM 576 up to 200 ug/ml after 48 hrs by agar cup plate method. The class given is functional, organism-based.

For the compound `Cc1ccc2cc(/C=C3\SC(=S)N(CC(=O)O)C3=O)c3nnnn3c2c1`, the MIC with Aspergillus flavus came out at 50 µg/mL (≈ 130 µM); in the data set with Candida albicans, 75 µg/mL (≈ 195 µM); in the data set on Fusarium oxysporum [5] it was 100 µg/mL (≈ 259 µM); in the data set on Aspergillus niger, 150 µg/mL (≈ 389 µM); in [9] it was 24.2 µg/mL (≈ 62.7 µM); in the data set on Cryptococcus neoformans [14], 150 µg/mL (≈ 389 µM). The lowest concentration to inhibit growth in [17] (MIC) was 159 µg/mL (≈ 413 µM). The IC90 in data set [1] was 24.2 µg/mL (≈ 62.7 µM); in data set [3], more than 250 µg/mL; in data set [8] it was 159 µg/mL (≈ 413 µM). Besides, the inhibition of growth at 3 µg/mL in [2] was 31.7%. Further, in data set [4], the inhibition of growth at 10 µg/mL was found to be 49.2%. The growth inhibition (GI) in data set [6] was -4.5%; in [10] it was 19.2%; in [11], 50.6%. The GI50 at 48 h in [7], in [12], in data set [13] and in data set [16] was more than 100 µg/mL each time. The GI90 (in data set [7]; in data set [12]; in the data set on HeLa; with A549) was more than 100 µg/mL in each case. In data set [15], the inhibition of growth at 30 µg/mL turned out to be 65%.
`Cc1cccc2cc(/C=C3\SC(=S)NC3=O)c3nnnn3c12`: the MIC amounted to 50 µg/mL (≈ 153 µM) against Aspergillus flavus; 25 µg/mL (≈ 76.4 µM) in the data set on Candida albicans; 100 µg/mL (≈ 305 µM) with Fusarium oxysporum [5]; 148 µg/mL (≈ 451 µM) against Pseudomonas fluorescens; 173 µg/mL (≈ 529 µM) in the data set with Escherichia coli; 25 µg/mL (≈ 76.4 µM) against Aspergillus niger. In addition, the MIC in data set [9] is more than 250 µg/mL; against Bacillus subtilis, 88.8 µg/mL (≈ 271 µM); in the data set with Cryptococcus neoformans [14] it was 75 µg/mL (≈ 229 µM); in the data set on Staphylococcus aureus, 127 µg/mL (≈ 388 µM); in data set [17] it was 148 µg/mL (≈ 453 µM). In data set [2], the inhibition of growth at 3 µg/mL was -9.62%. Also, the IC90 in data set [3] was more than 250 µg/mL; in [8] it was 148 µg/mL (≈ 453 µM). In data set [4], the inhibition of growth at 10 µg/mL came to 16.7%. The growth inhibition (GI) was found to be 64% in data set [6], 63.3% in data set [10] and 82.4% in data set [11]. In addition, the GI50 at 48 h in data set [7], in [12], in [13] and in data set [16] was more than 100 µg/mL throughout. In addition, the GI90 (in [7]; in data set [12]; in the data set on HeLa; in the data set with A549) was more than 100 µg/mL in each case. In addition, the inhibition of growth at 30 µg/mL in [15] turned out to be 40.3%.
For the compound `COc1ccc2c(c1)cc(/C=C1\SC(=S)NC1=O)c1nnnn12`, the MIC in the data set on Aspergillus flavus is 150 µg/mL (≈ 437 µM); with Candida albicans, 150 µg/mL (≈ 437 µM); in the data set with Pseudomonas fluorescens, 169 µg/mL (≈ 493 µM); in the data set with Escherichia coli, 198 µg/mL (≈ 577 µM); against Aspergillus niger, 100 µg/mL (≈ 291 µM); in [9], more than 250 µg/mL. Further, the MIC in the data set with Bacillus subtilis was 96.8 µg/mL (≈ 282 µM); with Cryptococcus neoformans [14], 150 µg/mL (≈ 437 µM); in the data set on Staphylococcus aureus, 144 µg/mL (≈ 419 µM); in data set [17], more than 250 µg/mL. For the same compound, the inhibition of growth at 3 µg/mL in data set [2] was found to be 18.9%. In addition, the inhibition of growth at 10 µg/mL in [4] worked out at 17.6%. Moreover, the figures for the growth inhibition (GI) in [6], in data set [10] and in [11] were 12.5%, 17.1% and 32.5%, respectively. The MIC result with Fusarium oxysporum [18] is “inactive”. In addition, in [15], the inhibition of growth at 30 µg/mL is -5.72%.
As for `COc1ccc2c(c1)cc(/C=C1\SC(=S)N(CCC(=O)O)C1=O)c1nnnn12`, the MIC with Aspergillus flavus is 150 µg/mL (≈ 361 µM); against Candida albicans, 150 µg/mL (≈ 361 µM); in the data set with Fusarium oxysporum [5] it was 125 µg/mL (≈ 301 µM); in the data set on Aspergillus niger it was 150 µg/mL (≈ 361 µM); in [9], more than 250 µg/mL; in data set [17], more than 250 µg/mL. Moreover, the inhibition of growth at 3 µg/mL in data set [2] was -0.42%. In [4], the inhibition of growth at 10 µg/mL was 27.9%. The values for the growth inhibition (GI) in data set [6], in data set [10] and in data set [11] were 8.94%, 16% and 23.9%, respectively. For the same compound, the MIC result with Cryptococcus neoformans [19] is “inactive”. Further, the inhibition of growth at 30 µg/mL in [15] was found to be 15.9%.

Source of the values: ChEMBL document CHEMBL3792317, “Novel tetrazoloquinoline-rhodanine conjugates: Highly efficient synthesis and biological evaluation” (Bioorg Med Chem Lett, 2016).
